Data taken from ChEMBL document CHEMBL1158914, “Antitumor agents, 115. Seselidiol, a new cytotoxic polyacetylene from Seseli mairei” (1990).
Values after ≈ are worked out from the molar mass of the structure shown.

Columns and labels:
Format in all cases: functional
P388 [1] = test: Cytotoxicity against mouse P388 cells; conditions: read-out: ED50 (the source's name)
HCT-8 = test: Cytotoxicity against human HCT8 cells; conditions: read-out: ED50 (the source's name)
KB = test: Cytotoxicity against human KB cells; conditions: read-out: ED50 (the source's name)
L1210 = test: Cytotoxicity against mouse L1210 cells; conditions: read-out: ED50 (the source's name)
P388 [2] = test: Antileukemic activity against mouse P388 cells xenografted in mouse at 3 mg/kg after 3 days relative to control

In the case of `C=CC(=O)C#CC#C/C=C\C(=O)CCCCCCC`, the EC50 (P388 [1]) was over 10 µg/mL, the EC50 (HCT-8) was 3.7 µg/mL (≈ 14.4 µM) and the EC50 (KB) was over 10 µg/mL. It also gave an EC50 (L1210) of over 10 µg/mL.

`CCC[C@@H](O)/C=C/C=C/C=C/C#CC#CCCCO` [CICUTOXIN] showed a T/C (P388 [2]) of 165% and an EC50 (KB) of 2 µg/mL (≈ 7.74 µM).

`COc1cccc2c1C(=O)c1c(O)c3c(c(O)c1C2=O)C[C@@](O)(C(=O)CO)C[C@@H]3O[C@H]1C[C@H](N)[C@H](O)[C@H](C)O1.Cl` [DOXORUBICIN HYDROCHLORIDE] gave an EC50 (HCT-8) of 0.3 µg/mL.

`COc1cc([C@@H]2c3cc4c(cc3[C@@H](O[C@@H]3O[C@@H]5CO[C@@H](C)O[C@H]5[C@H](O)[C@H]3O)[C@H]3COC(=O)[C@H]23)OCO4)cc(OC)c1O` [ETOPOSIDE] showed an EC50 (P388 [1]) of 2.6 µg/mL (≈ 4.42 µM), an EC50 (KB) of 0.1 µg/mL (≈ 0.17 µM) and an EC50 (L1210) of 1.6 µg/mL (≈ 2.72 µM).

Compound `C=CC(C#CC#C/C=C\C(CCCCCCC)OC(C)=O)OC(C)=O` (stereo not drawn) [SESELIDIOL DIACETATE] has an EC50 (P388 [1]) of 5.2 µg/mL, an EC50 (HCT-8) of 7.8 µg/mL and an EC50 (KB) of 4 µg/mL. It also gave an EC50 (L1210) of 5.5 µg/mL.

With `C=CC(O)C#CC#C/C=C\C(O)CCCCCCC` (stereo not drawn) [SESELIDIOL] the EC50 (P388 [1]) was 4.9 µg/mL (≈ 18.8 µM), the EC50 (HCT-8) was 10 µg/mL (≈ 38.4 µM) and the EC50 (KB) was 1 µg/mL (≈ 3.84 µM). The EC50 (L1210) was 3.3 µg/mL (≈ 12.7 µM).
